From ChEMBL document CHEMBL1123386, “Substituted-vinyl hydroxytriarylethylenes, 1-[4-[2-(diethylamino) ethoxy]phenyl]-1-(4-hydroxyphenyl)-2-phenylethylenes: synthesis and effects on MCF 7 breast cancer cell proliferation” (J Med Chem, 1986)

These compounds were tested on MCF7 (assay: Compound was tested for binding affinity against nuclear ER in MCF-7 cell extracts).
Format: functional, cell-based, Homo sapiens

| SMILES | Kd |
| --- | --- |
| CCN(CC)CCOc1ccc(/C(=C(/C#N)c2ccccc2)c2ccc(O)cc2)cc1 | 1.11 nM |
| CCN(CC)CCOc1ccc(/C(=C(\c2ccccc2)[N+](=O)[O-])c2ccc(O)cc2)cc1 | 0.56 nM |
| CCN(CC)CCOc1ccc(/C(=C\c2ccccc2)c2ccc(O)cc2)cc1 | 1.11 nM |
| CC/C(=C(\c1ccc(O)cc1)c1ccc(OCCN(CC)CC)cc1)c1ccccc1 | 0.29 nM |
| CCN(CC)CCOc1ccc(/C(=C(/Br)c2ccccc2)c2ccc(O)cc2)cc1 | 0.36 nM |
| CCN(CC)CCOc1ccc(/C(=C(/Cl)c2ccccc2)c2ccc(O)cc2)cc1 [4-OH-ENCLOMIPHENE] | 0.11 nM |
